Literature values as cited in PubChem BioAssay AID1259409 (Chemical Carcinogenesis Research Information System (CCRIS), 2018).

Test system: rodent chemically induced tumor inhibition, incidence and multiplicity
Assay: CCRIS tumor inhibitor studies
Settings: Carcinogen: AZOXYMETHANE, 25843-45-2, Dose [Inhibitor]: 0, 750 PPM IN DIET FOR 56 WK BEGINNING 2 WK PRIOR TO CARCINOGEN TREATMENT (STUDY DURATION: 56 WK), Route [Inhibitor]: ORAL, Species: RAT, Strain/Sex: F344/MALE, Dose [Carcinogen]: 15 MG/KG BW 1/WK FOR 2 WK, Promoter: NONE USED

Compound: COc1cc(/C=C/C(=O)OCCc2ccccc2)ccc1O
- tumour outcome (control, treated, inhibition, significance) (Target Tissue: Type of Lesion: COLON: ADENOCARCINOMA): 81%, 43%, 47%, p<0.002
- tumour outcome (control, treated, inhibition, significance) (Target Tissue: Type of Lesion: EAR DUCT: TUMOR): 25%, 0%, 100%, p<0.02
- tumour outcome (control, treated, inhibition, significance) (Target Tissue: Type of Lesion: SMALL INTESTINE: INVASIVE ADENOCARCINOMA): 16%, 10%, 38%, not significant
